The record followed here is US20170107577A1, “Determining Cancer Aggressiveness, Prognosis and Responsiveness to Treatment” (THE COUNCIL OF THE QUEENSLAND INSTITUTE OF MEDICAL RESEARCH, priority 2014, published 2017).

Read-outs that look alike come from different tables or passages of the source.

What all share (assay type): cell-based
Test [1] concerns breast cancer cell lines. Description: Aurora kinase inhibitor sensitivity of breast cancer cell lines by Agro, TN and iBCR score (two published studies). The method, then: Two studies which treated breast cancer cell lines with Aurora kinase inhibitors were analyzed based on the Agro, TN and the iBCR score for these cell lines.
The test system of test [2] is breast cancer cell lines. Description: Screen of 24 anti-cancer drugs on 10 breast cancer cell lines (MTS/MTA, six days) re-analysed by iBCR score. The conditions noted are these: 5 high vs 5 low iBCR score cell lines. The method, then: FIG. 47: The sensitivity of breast cancer cell lines treated with 24 drugs according to the iBCR score. Breast cancer cell lines (10 cell lines) were cultured in the absence or presence of escalating doses of 24 small molecular anti-cancer drugs. This published study was re-analyzed to compare the sensitivity (calculated as the −log IC50) between high iBCR score cell lines (5 cell lines: BT-549, MDA-MB-231, MDA-MB-436, MDA-MB-468 and BT-20) to low iBCR score cell lines (5 cell lines: Hs.578T, BT-474, MCF-7, T-47D, and ZR-75-1). The iBCR scores were calculated from the Agro and TN scores using the published gene expression dataset for 51 breast cancer cell lines (Neve et al., Cancer Cell, 2006). […] Statistical comparison was performed in GraphPad® Prism using two tailed unpaired t-test.
Breast cancer cell lines (10 cell lines); BT-549, MDA-MB-231, MDA-MB-436, MDA-MB-468, BT-20, Hs.578T, BT-474, MCF-7, T-47D, and ZR-75-1, were cultured in the absence or presence of escalating doses of 24 anti-cancer drugs. The survival of cells was determined six days in comparison to untreated cells using the MTS/MTA assay. The response of the cell lines to the drugs was analyzed in GraphPad® Prism using a dose response curve to calculate the log10 of IC50 (IC50 is the dose required to kill 50% of the cells). Sensitivity was presented as the −log10[IC50]. This drug screen which we published previously (Al-Ejeh et al., Oncotarget, 2014) was re-analyzed according to the iBCR score. The gene expression datasets of 51 breast cancer cell lines by Neve et al. (Cancer Cell, 2006), was analyzed to calculate the Agro and TN scores for each cell line to calculate the iBCR score. Each cell line was assigned as low of high iBCR score by dichotomy across the median of all the cell lines in the Neve et al. dataset. Based on the low or high iBCR score classification, the sensitivity of the 10 cell lines used in our screen was compared between high iBCR score cell lines (5 cell lines) to low iBCR score cell lines (5 cell lines). […] PLC[…] (U73122), INK (SP600125), PAK1 MEK (AS703026 and AZD6244), ERK5 (XMD 8-92 and BIX02188). HSP90 (17-AAa PF0429113 and AUY922), IGF1R (GSK1904529A) and EGFR (Afatinib). The results from our screen are in agreement with the higher sensitivity of high iBCR score cancer cell lines to HSP90, IGF1R and MEK inhibitors we identified from the two previously published large cell line studies.

Test [3] relates to cancer cell lines. Kind of test: Cancer Cell Line Encyclopedia (CCLE) drug sensitivity re-analysed by TN/Agro/iBCR score. The conditions noted are these: CCLE study; for sensitivity (IC50) of high TN score vs low TN score cell lines: dichotomy across median TN score; for sensitivity (IC50) of high iBCR score vs low iBCR score cell lines: dichotomy across median iBCR score. How it is done:
(§1) FIG. 35: Sensitivity of cancer cell lines to anticancer drugs according to the TN score in the Cancer Cell Line Encyclopedia (CCLE) study. The gene expression data of the cancer cell lines in the study were analyzed to calculate the TN score for each cell line and were assigned to low or high TN score by dichotomy across the median. The IC50 for each of the 24 drugs used in the CCLE study was compared between high and low TN score cell lines and the data shown are those with statistical differences based on unpaired two-tailed t-test performed using GraphPad® Prism.
as §1, with “FIG. 42: Sensitivity of” for “FIG. 35: Sensitivity of”, “to the iBCR score in” for “to the TN score in”, “or high iBCR score by” for “or high TN score by”, “and low iBCR score cell” for “and low TN score cell”, “GraphPad® Prism. As this analysis was also done for the TN score (FIG. 35), results from analysis of the Agro score are also shown in the top row.” for “GraphPad® Prism.”
(§2) Two large studies which treated large panels of cancer cell lines with large panels of anticancer drugs were investigated to determine whether cell lines with high Agro, TN or iBCR scores show different sensitivity to particular anticancer drugs in comparison to cancer cell lines with low Agro, TN or iBCR scores. Briefly, the datasets of gene expression profiling from Genentech (mRNA Cancer Cell Line Profiles GSE10843), Pfizer (Pfizer Molecular Profile Data for Cell Line GSE34211) and Broad Institute/Novartis (Cancer Cell Line Encyclopedia [CCLE] GSE3613) were obtained from GEO and imported into ArrayTools as described earlier. The Agro, TN and iBCR scores for all the cell lines profiled were calculated and cell lines were assigned as high or low for each of the scores based on dichotomy across the median in each dataset. For cell lines which were profiled in more than one dataset, the average scores were used. […] Statistical significance was determined from unpaired two-tailed t-test using GraphPad® Prism.
(§3) In the second approach, published studies which surveyed panels of molecular drugs against, cancer cell lines were analyzed. The Cancer Cell Line Encyclopedia (CCLE) study investigated the pharmacological profiles for 24 anticancer drugs across 479 cancer cell lines which were also profiled with gene expression arrays. We calculated the TN score for each cell line in this study and compared the sensitivity of these cell lines to the anticancer drugs according to the TN score. […] In a similar method, we also analyzed a second large study. Garnett et al., which tested 130 drugs against more than 600 cancer cell lines.

Test [4] deals with cancer cell lines. Kind of test: Garnett et al. drug screen re-analysed by TN/Agro/iBCR score. To be noted: Garnett et al. study, dichotomy across median iBCR score. The method, then: FIG. 24: Drug sensitivity of cancer cell lines according to the TN score. The large published study by Garnett et al. was investigated where the TN score was calculated for each cell line in the study as described in Methods. The cell lines were classified as high or low TN score according to the median TN score to compare the sensitivity of low TN score cell lines (white boxes) and high TN score cell lines (red boxes). Graphs were prepared using GraphPad® Prism showing sensitivity as −log 10[IC50] in boxes (with median marked by a line) and whiskers (marking the 1st and 3rd quartiles and outliers as dots according to Tukey method for plotting the whiskers and outliers). Unpaired two-tailed t test was used for statistical analysis.
FIG. 30: Drug sensitivity of cancer cell lines according to the iBCR score. The large published study by Garnett et al. was investigated where the iBCR score was calculated for each cell line from the Agro and TN scores. The cell lines were classified as high or low iBCR score according to the median iBCR score to compare the sensitivity of low iBCR score cell lines (white boxes) and […] (red boxes). Results according to low and high Agro score were also included.
as §2, §3

[5] abbreviates: high iBCR score breast cancer cell lines, read-out: IC50, high iBCR score cell lines.
The mark [6] stands for this setting: low iBCR score breast cancer cell lines, read-out: IC50, low iBCR score cell lines.

Broadly, the IC50 is the midpoint of a concentration-inhibition curve. On to `Cc1csc(-c2nnc(Nc3ccc(Oc4ncccc4-c4ccnc(N)n4)cc3)c3ccccc23)c1` [AMG 900], for which the IC50 in the test on breast cancer cell lines [1] (setting [5]) turned out to be 0.3 nM; in the test with breast cancer cell lines [1] (setting [6]), 0.7 nM.
As to `O=C(NC[C@H](O)CO)c1ccncc1Nc1ccc(I)cc1F` [AS703026], the “sensitivity (−log10[IC50]) of high iBCR score vs low iBCR score breast cancer cell lines” value in the test on breast cancer cell lines [2] is given as “significantly more sensitive”.
Same read-out and setting: in the case of `CCNC(=O)c1noc(-c2cc(C(C)C)c(O)cc2O)c1-c1ccc(CN2CCOCC2)cc1` [AUY922] it was “significantly more sensitive”; in that of `Cn1cnc2c(F)c(Nc3ccc(Br)cc3Cl)c(C(=O)NOCCO)cc21` [AZD6244], “significantly more sensitive”.
On to `Cc1cc(Nc2cc(N3CCN(C)CC3)nc(/C=C/c3ccccc3)n2)n[nH]1` [ENMD-2076], for which the results for the IC50 in the test with breast cancer cell lines [1] (setting [5]) and in the test on breast cancer cell lines [1] (setting [6]) were 1400 nM and 5900 nM, respectively.
In the case of `C#Cc1cccc(Nc2ncnc3cc(OCCOC)c(OCCOC)cc23)c1` [Erlotinib], the “sensitivity (IC50) of high TN score vs low TN score cell lines” value (“sensitivity … vs low TN score cell lines” below) in the test with cancer cell lines [3] is “more sensitive”.
For `CCc1cc(Nc2nccc(-c3c(-c4ccc(OC)c(C(=O)Nc5c(F)cccc5F)c4)nc4ccccn34)n2)c(OC)cc1N1CCC(N2CCN(S(C)(=O)=O)CC2)CC1` [GSK1904529A], in the test with breast cancer cell lines [2], the “sensitivity (−log10[IC50]) of high iBCR score vs low iBCR score breast cancer cell lines” value was “significantly more sensitive”.
The same measure, in the same setting: the value for `CC(C)(C)Cn1c(N)nc2ccc(-c3[nH]c(C(C)(C)C)nc3-c3ccc(F)cc3)nc21` [LY2228820] was “significantly more sensitive”.
As to `CS(=O)(=O)CCNCc1ccc(-c2ccc3ncnc(Nc4ccc(OCc5cccc(F)c5)c(Cl)c4)c3c2)o1` [Lapatinib], the “sensitivity … vs low TN score cell lines” value in the test with cancer cell lines [3] was “more sensitive”.
Turning to `Cc1cn(-c2cc(NC(=O)c3ccc(C)c(Nc4nccc(-c5cccnc5)n4)c3)cc(C(F)(F)F)c2)cn1` [Nilotinib], the “sensitivity of high iBCR score vs low iBCR score cell lines” value with cancer cell lines [4] was “less sensitive”. In the test with cancer cell lines [3], the “sensitivity … vs low TN score cell lines” value is recorded as “less sensitive” and the “sensitivity (IC50) of high iBCR score vs low iBCR score cell lines” value is “less sensitive”.
On to `CC1(C)CC(=O)c2c(C(F)(F)F)nn(-c3ccc(C(N)=O)c(N[C@H]4CC[C@H](OC(=O)CN)CC4)c3)c2C1` [PF0429113], for which the “sensitivity (−log10[IC50]) of high iBCR score vs low iBCR score breast cancer cell lines” value in the test on breast cancer cell lines [2] is recorded as “significantly more sensitive”.
In the case of `COc1cc(N2CCC(N3CCN(C)CC3)CC2)ccc1Nc1ncc(Cl)c(Nc2ccccc2S(=O)(=O)C(C)C)n1` [TAE684], in the test with cancer cell lines [3], the “sensitivity … vs low TN score cell lines” value is recorded as “less sensitive” and the “sensitivity (IC50) of high iBCR score vs low iBCR score cell lines” value is “less sensitive”.
Turning to `CN1CCN(c2ccc3nc(-c4c(N)c5c(F)cccc5[nH]c4=O)[nH]c3c2)CC1` [TKI258], the “sensitivity (IC50) of high iBCR score vs low iBCR score cell lines” value in the test with cancer cell lines [3] is “less sensitive”.
Take `COc1ccc2c(c1)CC[C@@H]1[C@@H]2CC[C@]2(C)[C@@H](NCCCCCCN3C(=O)C=CC3=O)CC[C@@H]12` [U73122]: the “sensitivity (−log10[IC50]) of high iBCR score vs low iBCR score breast cancer cell lines” value in the test on breast cancer cell lines [2] is given as “significantly more sensitive”.
Same read-out and setting: in the case of `CCOc1cc(N2CCC(O)CC2)ccc1Nc1ncc2c(n1)N(C)c1ccccc1C(=O)N2C` [XMD 8-92] it was “significantly more sensitive”.
